# Source: PubChem BioAssay AID1259407 (Chemical Carcinogenesis Research Information System (CCRIS), 2018)
# Active and inactive are the calls of the source. How the calls were made is not given here.
# Tested on: CCRIS mutagenicity, Ames/micronucleus/aberration tests
# Experiment: CCRIS mutagenicity studies
smiles,measurement,setting,value
Nc1ccc(-c2ccc(N)cc2)cc1,mutagenic call,"End Point: IN VITRO CHROMOSOMAL ABERRATIONS, Test System: CHINESE HAMSTER OVARY CELLS, Metabolic Activation: NONE",inactive; negative
same,mutagenic call,"End Point: IN VITRO CHROMOSOMAL ABERRATIONS, Test System: CHINESE HAMSTER OVARY CELLS, Metabolic Activation: RAT, LIVER, S-9, AROCLOR 1254",active; positive
same,mutagenic call,"Test System: AMES SALMONELLA TYPHIMURIUM, Strain/Indicator: DJ400, Metabolic Activation: HUMAN, HEPATOMA CELLS, BENZO[A]ANTHRACENE, Method: PREINCUBATION",active; positive
same,mutagenic call,"Test System: AMES SALMONELLA TYPHIMURIUM, Strain/Indicator: DJ400, Metabolic Activation: HUMAN, HEPATOMA CELLS, Method: PREINCUBATION",active; positive
same,mutagenic call,"Test System: AMES SALMONELLA TYPHIMURIUM, Strain/Indicator: DJ400, Metabolic Activation: RAT, LIVER, S-9, AROCLOR 1254, Method: PREINCUBATION",active; positive
same,mutagenic call,"Test System: AMES SALMONELLA TYPHIMURIUM, Strain/Indicator: DJ400, Metabolic Activation: RAT, LIVER, S-9, Method: PREINCUBATION",active; positive
same,mutagenic call,"Test System: AMES SALMONELLA TYPHIMURIUM, Strain/Indicator: DJ400, Metabolic Activation: TOBACCO TX1 CELLS, Method: PREINCUBATION",inactive; negative
same,mutagenic call,"Test System: AMES SALMONELLA TYPHIMURIUM, Strain/Indicator: DJ460, Metabolic Activation: HUMAN, HEPATOMA CELLS, BENZO[A]ANTHRACENE, Method: PREINCUBATION",active; positive
same,mutagenic call,"Test System: AMES SALMONELLA TYPHIMURIUM, Strain/Indicator: DJ460, Metabolic Activation: HUMAN, HEPATOMA CELLS, Method: PREINCUBATION",active; positive
same,mutagenic call,"Test System: AMES SALMONELLA TYPHIMURIUM, Strain/Indicator: DJ460, Metabolic Activation: RAT, LIVER, S-9, AROCLOR 1254, Method: PREINCUBATION",active; positive
same,mutagenic call,"Test System: AMES SALMONELLA TYPHIMURIUM, Strain/Indicator: DJ460, Metabolic Activation: RAT, LIVER, S-9, Method: PREINCUBATION",active; positive
same,mutagenic call,"Test System: AMES SALMONELLA TYPHIMURIUM, Strain/Indicator: DJ460, Metabolic Activation: TOBACCO CELL-FREE EXTRACT, Method: PREINCUBATION",active; positive
same,mutagenic call,"Test System: AMES SALMONELLA TYPHIMURIUM, Strain/Indicator: DJ460, Metabolic Activation: TOBACCO TX1 CELLS, Method: PREINCUBATION",active; positive
same,mutagenic call,"Test System: AMES SALMONELLA TYPHIMURIUM, Strain/Indicator: MP110, Metabolic Activation: TOBACCO TX1 CELLS, Method: PREINCUBATION",inactive; negative
same,mutagenic call,"Test System: AMES SALMONELLA TYPHIMURIUM, Strain/Indicator: MP120, Metabolic Activation: TOBACCO TX1 CELLS, Method: PREINCUBATION",inactive; negative
same,mutagenic call,"Test System: AMES SALMONELLA TYPHIMURIUM, Strain/Indicator: MP208, Metabolic Activation: TOBACCO CELL-FREE TXIMX, Method: PREINCUBATION",active; positive
same,mutagenic call,"Test System: AMES SALMONELLA TYPHIMURIUM, Strain/Indicator: MP219, Metabolic Activation: TOBACCO CELL-FREE TXIMX, Method: PREINCUBATION",active; positive
same,mutagenic call,"Test System: AMES SALMONELLA TYPHIMURIUM, Strain/Indicator: SV50, Metabolic Activation: HAMSTER, LIVER, S-9, Method: STANDARD PLATE",inactive; negative
same,mutagenic call,"Test System: AMES SALMONELLA TYPHIMURIUM, Strain/Indicator: SV50, Metabolic Activation: NONE, Method: PREINCUBATION (PRIVAL METHOD)",active; positive
same,mutagenic call,"Test System: AMES SALMONELLA TYPHIMURIUM, Strain/Indicator: SV50, Metabolic Activation: RAT, LIVER, S-9, AROCLOR 1254, Method: STANDARD PLATE",inactive; negative
same,mutagenic call,"Test System: AMES SALMONELLA TYPHIMURIUM, Strain/Indicator: TA98(1,8-DNP6), Metabolic Activation: NONE, Method: PREINCUBATION",inactive; negative
same,mutagenic call,"Test System: AMES SALMONELLA TYPHIMURIUM, Strain/Indicator: TA98(1,8-DNP6), Metabolic Activation: NONE, Method: STANDARD PLATE",inactive; negative
same,mutagenic call,"Test System: AMES SALMONELLA TYPHIMURIUM, Strain/Indicator: TA98(1,8-DNP6), Metabolic Activation: PLANT CELLS, Method: PREINCUBATION",active; positive
same,mutagenic call,"Test System: AMES SALMONELLA TYPHIMURIUM, Strain/Indicator: TA98(1,8-DNP6), Metabolic Activation: S-9, Method: STANDARD PLATE",inactive; negative
same,mutagenic call,"Test System: AMES SALMONELLA TYPHIMURIUM, Strain/Indicator: TA98(1,8-DNP6), Metabolic Activation: TOBACCO CELL-FREE TXIMX, Method: PREINCUBATION",inactive; negative
same,mutagenic call,"Test System: AMES SALMONELLA TYPHIMURIUM, Strain/Indicator: TA98(NR), Metabolic Activation: TOBACCO CELL-FREE TXIMX, Method: PREINCUBATION",active; positive
same,mutagenic call,"Test System: AMES SALMONELLA TYPHIMURIUM, Strain/Indicator: TA98, Metabolic Activation: HAMSTER, LIVER, S-9, Method: PREINCUBATION",active; positive
same,mutagenic call,"Test System: AMES SALMONELLA TYPHIMURIUM, Strain/Indicator: TA98, Metabolic Activation: HAMSTER, LIVER, S-9, Method: PREINCUBATION (PRIVAL METHOD)",active; positive
same,mutagenic call,"Test System: AMES SALMONELLA TYPHIMURIUM, Strain/Indicator: TA98, Metabolic Activation: HAMSTER, LIVER, S-9, Method: STANDARD PLATE",active; positive
same,mutagenic call,"Test System: AMES SALMONELLA TYPHIMURIUM, Strain/Indicator: TA98, Metabolic Activation: HUMAN, HEPATOMA CELLS, BENZO[A]ANTHRACENE, Method: PREINCUBATION",active; positive
same,mutagenic call,"Test System: AMES SALMONELLA TYPHIMURIUM, Strain/Indicator: TA98, Metabolic Activation: HUMAN, HEPATOMA CELLS, Method: PREINCUBATION",active; positive
same,mutagenic call,"Test System: AMES SALMONELLA TYPHIMURIUM, Strain/Indicator: TA98, Metabolic Activation: MOUSE, LIVER, S-9, Method: STANDARD PLATE",active; positive
same,mutagenic call,"Test System: AMES SALMONELLA TYPHIMURIUM, Strain/Indicator: TA98, Metabolic Activation: NONE, Method: PREINCUBATION",inactive; negative
same,mutagenic call,"Test System: AMES SALMONELLA TYPHIMURIUM, Strain/Indicator: TA98, Metabolic Activation: NONE, Method: STANDARD PLATE",inactive; negative
same,mutagenic call,"Test System: AMES SALMONELLA TYPHIMURIUM, Strain/Indicator: TA98, Metabolic Activation: PLANT CELLS, Method: PREINCUBATION",active; positive
same,mutagenic call,"Test System: AMES SALMONELLA TYPHIMURIUM, Strain/Indicator: TA98, Metabolic Activation: RAT LIVER S-9, AROCLOR 1254, Method: PREINCUBATION",active; positive
same,mutagenic call,"Test System: AMES SALMONELLA TYPHIMURIUM, Strain/Indicator: TA98, Metabolic Activation: RAT, BLADDER, S-9, PCB, Method: FLUCTUATION TEST",inactive; negative
same,mutagenic call,"Test System: AMES SALMONELLA TYPHIMURIUM, Strain/Indicator: TA98, Metabolic Activation: RAT, LIVER, S-9, AROCLOR 1254, Method: PREINCUBATION",active; positive
same,mutagenic call,"Test System: AMES SALMONELLA TYPHIMURIUM, Strain/Indicator: TA98, Metabolic Activation: RAT, LIVER, S-9, AROCLOR 1254, Method: STANDARD PLATE",active; positive
same,mutagenic call,"Test System: AMES SALMONELLA TYPHIMURIUM, Strain/Indicator: TA98, Metabolic Activation: RAT, LIVER, S-9, PHENOBARBITAL, Method: STANDARD PLATE",active; positive
same,mutagenic call,"Test System: AMES SALMONELLA TYPHIMURIUM, Strain/Indicator: TA98, Metabolic Activation: RAT, LIVER, S-9, Method: PREINCUBATION",active; positive
same,mutagenic call,"Test System: AMES SALMONELLA TYPHIMURIUM, Strain/Indicator: TA98, Metabolic Activation: S-9, Method: STANDARD PLATE",active; positive
same,mutagenic call,"Test System: AMES SALMONELLA TYPHIMURIUM, Strain/Indicator: TA98, Metabolic Activation: TOBACCO CELL-FREE TXIMX, Method: PREINCUBATION",active; positive
same,mutagenic call,"Test System: AMES SALMONELLA TYPHIMURIUM, Strain/Indicator: TA100(NR), Metabolic Activation: TOBACCO CELL-FREE TXIMX, Method: PREINCUBATION",inactive; negative
same,mutagenic call,"Test System: AMES SALMONELLA TYPHIMURIUM, Strain/Indicator: TA100(TN:OAT), Metabolic Activation: TOBACCO CELL-FREE TXIMX, Method: PREINCUBATION",inactive; negative
same,mutagenic call,"Test System: AMES SALMONELLA TYPHIMURIUM, Strain/Indicator: TA100, Metabolic Activation: HUMAN, LIVER, S-9, Method: STANDARD PLATE",active; positive
same,mutagenic call,"Test System: AMES SALMONELLA TYPHIMURIUM, Strain/Indicator: TA100, Metabolic Activation: NONE, Method: PREINCUBATION",inactive; negative
same,mutagenic call,"Test System: AMES SALMONELLA TYPHIMURIUM, Strain/Indicator: TA100, Metabolic Activation: NONE, Method: STANDARD PLATE",inactive; negative
same,mutagenic call,"Test System: AMES SALMONELLA TYPHIMURIUM, Strain/Indicator: TA100, Metabolic Activation: RAT LIVER S-9, AROCLOR 1254, Method: PREINCUBATION",inactive; negative
